Series [1] can be described thus: Tmax in BALB/c mouse at 10 mg/kg, iv measured for 24 hrs by LC-MS/MS analysis. Format: ADME, organism-based. As to conditions: in vivo.
Series [2] concerns HEK293. The experiment in a line: Cytotoxicity against human HEK293 cells transfected with human P2X7 receptor assessed as effect on cell viability at 1 to 4 uM incubated for 2 hrs by CCK8 assay. Format: toxicity, cell-based. As to conditions: hek293, 2 h, dose 1-4 µM. A general note: Tetrazolium assays rely on reduction of a dye to a coloured formazan, in cell work by metabolically active cells.

The subject of series [3] is Mus musculus. Briefly: Reno-protective activity against LPS-induced acute kidney injury C57BL/6J mouse model assessed as decrease in tubular injury by measuring improvement of infiltration of inflammatory cells at 5 to 20 mg/kg, ip administered twice at 30 mins prior to LPS challenge and 8 hrs post-LPS challenge and measured at 16 hrs post-LPS challenge by Hematoxylin-Eosin staining based analysis. The format is functional, organism-based. As to conditions: dose 5-20 mg/kg, time 16.5 hrs.

Series [4] concerns HEK293. Briefly: Cytotoxicity against human HEK293 cells transfected with mouse P2X7 receptor assessed as effect on cell viability at 1 to 4 uM incubated for 2 hrs by CCK8 assay. As to conditions: hek293, 2 h, dose 1-4 µM. The format is toxicity, cell-based.
The target in a further series is T1, P2X purinoceptor 7 (Homo sapiens, UniProt Q99572).
T1 sequence (Q99572 whole entry): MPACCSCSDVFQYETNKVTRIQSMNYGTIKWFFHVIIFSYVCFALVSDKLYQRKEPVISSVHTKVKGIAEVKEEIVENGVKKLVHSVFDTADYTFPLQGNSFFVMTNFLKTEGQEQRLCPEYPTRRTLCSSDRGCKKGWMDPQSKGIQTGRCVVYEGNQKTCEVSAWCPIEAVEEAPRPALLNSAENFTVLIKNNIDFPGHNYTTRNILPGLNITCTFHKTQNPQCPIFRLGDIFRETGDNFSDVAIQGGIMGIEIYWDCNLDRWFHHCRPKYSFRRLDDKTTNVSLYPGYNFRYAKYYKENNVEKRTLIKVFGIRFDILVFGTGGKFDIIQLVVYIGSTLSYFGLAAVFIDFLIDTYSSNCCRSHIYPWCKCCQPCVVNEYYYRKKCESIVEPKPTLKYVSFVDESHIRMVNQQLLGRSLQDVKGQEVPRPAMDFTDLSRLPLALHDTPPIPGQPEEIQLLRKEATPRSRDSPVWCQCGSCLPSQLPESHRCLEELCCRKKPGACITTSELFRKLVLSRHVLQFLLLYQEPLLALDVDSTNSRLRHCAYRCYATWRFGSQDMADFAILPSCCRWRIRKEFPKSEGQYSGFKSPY
The experiment in a line: Antagonist activity at P2X7 receptor in human THP-1 cells assessed as inhibition of ATP-induced IL-1beta secretion pretreated with LPS for 3 hrs followed by incubation with compound for 40 mins followed by treatment with ATP for 1 hr by ELISA. Format: cell-based. In general terms: An ELISA detects its analyte on a solid surface through an enzyme-linked reagent.

Series [5] in a line: Toxicity in C57BL/6J mouse assessed as pathological changes in spleen at 20 mg/kg, ip administered twice at 0 hrs and 8 hrs and measured after 16 hrs by Hematoxylin-Eosin staining based analysis. Format: organism-based. As to conditions: in vivo.
For series [6], the system named is Mus musculus. The experiment in a line: Reno-protective activity against LPS-induced acute kidney injury C57BL/6J mouse model assessed as decrease in NGAL mRNA expression in kidney at 5 to 20 mg/kg, ip administered twice at 30 mins prior to LPS challenge and 8 hrs post-LPS challenge and measured at 16 hrs post-LPS challenge by RT-qPCR analysis. Format: functional, organism-based. As to conditions: dose 5-20 mg/kg, time 16.5 hrs.

The nature of series [7]: Toxicity in C57BL/6J mouse assessed as pathological changes in liver at 20 mg/kg, ip administered twice at 0 hrs and 8 hrs and measured after 16 hrs by Hematoxylin-Eosin staining based analysis. Format: organism-based. As to conditions: in vivo.
Series [8] can be described thus: AUC(0 to t) in BALB/c mouse at 10 mg/kg, iv measured for 24 hrs by LC-MS/MS analysis. The format is ADME, organism-based. Details: time 24 hrs, dose 10 mg/kg, route iv. As to conditions: in vivo.
Series [9] concerns Mus musculus. Briefly: Reno-protective activity against CLP-induced acute kidney injury C57BL/6J mouse model assessed as decrease in BUN level at 20 mg/kg, ip administered twice at 30 mins prior to CLP operation and 8 hrs post-CLP operation and measured at 16 hrs post-CLP operation. As to conditions: time 16.5 hrs. The format is functional, organism-based.
The nature of series [10]: Cmax in BALB/c mouse at 10 mg/kg, ip measured for 24 hrs by LC-MS/MS analysis. Format: ADME, organism-based. Details: dose 10 mg/kg, time 24 hrs, route ip. As to conditions: in vivo.
Series [11] has as its system Mus musculus. The experiment in a line: Reno-protective activity against CLP-induced acute kidney injury C57BL/6J mouse model assessed as decrease in NGAL mRNA expression in kidney at 20 mg/kg, ip administered twice at 30 mins prior to CLP operation and 8 hrs post-CLP operation and measured at 16 hrs post-CLP operation by RT-qPCR analysis. The format is functional, organism-based. As to conditions: time 16.5 hrs. Background: Quantitative PCR measures a nucleic acid by following its amplification.

The nature of series [12]: Tmax in BALB/c mouse at 10 mg/kg, po measured for 24 hrs by LC-MS/MS analysis. The format is ADME, organism-based. As to conditions: in vivo.
The nature of series [13]: Toxicity in C57BL/6J mouse assessed as pathological changes in kidney at 20 mg/kg, ip administered twice at 0 hrs and 8 hrs and measured after 16 hrs by Hematoxylin-Eosin staining based analysis. Format: organism-based. As to conditions: in vivo.
Series [14] deals with Mus musculus. The experiment in a line: Reno-protective activity against LPS-induced acute kidney injury C57BL/6J mouse model assessed as decrease in serum […] level at 10 mg/kg, ip administered twice at 30 mins prior to LPS challenge and 8 hrs post-LPS challenge and measured at 16 hrs post-LPS challenge. The format is functional, organism-based. As to conditions: time 16.5 hrs.

The target of series [15] is T2, P2X purinoceptor 7 (Homo sapiens) (UniProt Q99572).
T2 sequence (whole entry): T1 sequence (Q99572 whole entry)
Briefly: Antagonist activity at human P2X7 receptor expressed in HEK293 cells assessed as inhibition of ATP-induced receptor pore formation at 1 uM by propidium iodide dye uptake based fluorescence analysis. The format is cell-based. As to conditions: filed as antagonist.

The values that follow come from ChEMBL document CHEMBL5360655, “Design, Synthesis, and Biological Evaluation of Novel P2X7 Receptor Antagonists for the Treatment of Septic Acute Kidney Injury” (J Med Chem, 2023).

The structures appear in SMILES notation. Calls of active or inactive are those of the source. The rule behind the calls is not given here.

In the case of `CS(=O)(=O)c1ccc(-c2nc(C(=O)NCc3cn(-c4cc(Br)ccn4)nn3)cs2)cc1`, the Tmax (as a rule, the time from dosing to the highest level) in [1] came out at 11.4 min; in [12] it was 70.2 min. The Activity result in the series with HEK293 [2] is “Non-Toxic”; in the series on Mus musculus [3], “Dose-Dependent Effect”; in the series with HEK293 [4] it was “Non-Toxic”; in series [5], “Non-Toxic”; in the series with Mus musculus [6], “Dose-Dependent Effect”; in series [7] it was “Non-Toxic”. In series [13], the Activity entry was “Non-Toxic”. In addition, the IC50 (usually the concentration that inhibits the measured activity by half) on P2X purinoceptor 7 was 327 nM. Further, in series [8], the area under the curve AUC(0-t) (in general, the area under the concentration-time curve up to a stated or last time point) at 24 h turned out to be 16600 ng·h/mL. The outcome with Mus musculus [9], in the series on Mus musculus [11] and with Mus musculus [14] was Active. Moreover, in series [10], the peak concentration (Cmax) – broadly, the maximum level reached in the sampled fluid or tissue – stood at 1070 ng/mL. Besides, in [15], the inhibition (as a rule, the change of the read-out against control, counted positive when it falls) was determined as 112%.
